This is an account of results in patent publication US7150974B1, “Parathyroid hormone receptor binding method” (The General Hospital Corporation, priority 1991, dated 2006).

Assay [1] addresses T1, opossum kidney PTH/PTHrP receptor clone, OK-H (Didelphis virginiana, UniProt P25107, I132F/S86P).
T1 construct: expressed in transfected cells; host or cells: COS cells, transient, plasmid OK-H (pcDNA I)
The experiment in a line: Radioreceptor assay, COS cells expressing OK-H. The following applies: FIG. 9. The format is binding. The procedure:
In brief, the labeled peptide was dissolved in 0.1% trifluoracetic acid (TFA), applied to a C18 Sep-pak cartridge (Waters Associates, Inc., Milford, Mass.) and eluted with a solution of 60% acetonitrile in 0.1% TFA. After lyophilization, the radioligand then was applied to C18-μBondapak column (3.9 mm×30 cm. Waters Associates) and eluted over 30 min with a linear gradient of 30-50% acetonitrile-0.1% TFA at a flow rate of 2 ml/min.
COS-7 cells were grown in 15 cm plates in DMEM, 10% heat-inactivated […], 10 mg/L gentamycin until 80-90% confluent. Twenty-four hours after transfection by the DEAE/Dextran method (Sambrook et al., supra), with 1-2 μg of plasmid DNA, the cells were trypsinized and replated in multiwell plastic dishes (16 or 35 mm diameter, Costar, Cambridge, Mass.) at a cell concentration of 5×10^4 cells/cm^2). […] After continuing culture for another 48 h, radiorecepter assays were performed. The culture medium was replaced with buffer containing 50 mM Tris-HCL (pH 7.7), 100 mM NaCl, 2 mM CaCl2, 5 mM KCL, 0.5% heat-inactivated fetal bovine serum (GIBCO), and 5% heat-inactivated horse serum (KC Biological Inc., Lenexa, Kans.) immediately before studies were initiated.
Incubations were terminated by aspirating the buffer, and repeatedly (×3) washing the culture dishes, containing the adherent cells with chilled 0.9% NaCl solution, over a 15 sec period. Cell-bound radioactivity was recovered by the sequential addition (×3) of 1 N NaOH (200 μl) to each well. After 30 min at room temperature, the NaOH was transferred to a glass tube. A second and third extraction with 1 N NaOH (200 μl) were combined with the first, and the total radioactivity was counted in a γ-spectrometer (Packard Instruments, Downers Grove, Ill.).

In assay [2] the target is T1, opossum kidney PTH/PTHrP receptor clone, OK-H. The experiment in a line: Intracellular free calcium, COS cells expressing OK-H. The format is cell-based. The settings on record: FIG. 10, smaller extent, or not at all, compared with OK-O or R15B. The procedure: Measurements of intracellular calcium levels in cells transfected with PTH/PTHrP receptor cDNAs were performed using Fura-2 AM (acetomethoxy ester of Fura-2, Molecular Probes Inc., Eugene, Oreg.) loaded cells. Details of the methodology are:
Coverslips plated with COS cells were incubated in Fura-2 AM loading buffer containing, in mM: HEPES (N-[2-Hydroxyethyl]piperazine-N′-[2-ethanesulfonic acid]), 20; CaCl2, 1; KCl 5; NaCl, 145; MgSO4, 0.5; NaHCO3, 25; K2HPO4, 1.4; glucose, 10; and Fura-2 AM 91-(2-5′-carboxyoxazol-2′-yl)-6-aminobenzofuran-5oxy-(2′-amino-5′-methylphenoxy)ethane-N,N,N′,N′-tetraaecetic acid acetomethoxy ester), 0.5; at 37° C. at pH7.4, aerated with 95% air and 5% CO2 for 45 minutes. Cells loaded with Fura-2 AM were then washed with a modified Krebs-Heinseleit (KH) buffer containing, in mM: HEPES, 20; CaCl2, 1; KCl, 5; NaCl, 145; MgSO4, 0.5; Na2HPO4, 1; glucose, 5; pH7.4. To check that cleavage of the ester occurred, the excitation spectra after different times of Fura-2 AM incubation were measured. […]
To measure fluorescence of individual cells, the cover slips were placed in a microscope tissue chamber (Biophysica Technologies, Inc., MD). […] Fura-2 fluorescence was excited with a 75 watt Xenon arc lamp placed at the focal point of a condenser (Photon Technologies International (PTI) Inc., NJ). […]

T1 sequence (P25107 other isoform, or with tags, fused parts or gaps S86P/I132F): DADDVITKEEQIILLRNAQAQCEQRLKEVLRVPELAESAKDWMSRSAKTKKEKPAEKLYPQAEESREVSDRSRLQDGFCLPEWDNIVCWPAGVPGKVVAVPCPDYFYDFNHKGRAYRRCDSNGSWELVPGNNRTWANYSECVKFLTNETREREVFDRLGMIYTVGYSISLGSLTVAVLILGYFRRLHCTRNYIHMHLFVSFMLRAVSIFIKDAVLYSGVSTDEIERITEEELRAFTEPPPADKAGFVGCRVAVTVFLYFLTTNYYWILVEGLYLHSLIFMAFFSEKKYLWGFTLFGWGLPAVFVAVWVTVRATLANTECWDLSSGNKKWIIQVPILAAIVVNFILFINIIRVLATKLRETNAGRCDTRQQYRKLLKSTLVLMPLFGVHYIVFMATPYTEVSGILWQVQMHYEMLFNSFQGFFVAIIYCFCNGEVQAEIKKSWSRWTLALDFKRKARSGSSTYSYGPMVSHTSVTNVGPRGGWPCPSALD

Take [Nle^8,18, Tyr^34]bPTH(1-34)amide: in assay [1], the “inhibition of 125I-PTHrP binding by competitor” value is recorded as “inhibited”. In assay [2], the “increase in concentration of intracellular free calcium (mean)” value is given as 39 nM.
